Where two headings read alike, the source gives them in different places.
Legend:
Type in all cases: cell-based
Botrytis cinerea = assay: Activity against the grey mold Botrytis cinerea in the microtiterplate test; conditions: single active, 7 days after inoculation
Source text: Synergism can be described as an interaction where the combined effect of two or more compounds is greater than the sum of the individual effects of each of the compounds. The presence of a synergistic effect in terms of percent control or efficacy, between two mixing partners (X and Y) can be calculated using the Colby equation (Colby, S. R., 1967, Calculating Synergistic and Antagonistic Responses in Herbicide Combinations, Weeds, 15, 20-22): The measured parameters were compared to the growth of the active compound-free control variant (100%) and the fungus-free blank value to determine the relative growth in % of the pathogens in the respective active compounds. These percentages were converted into efficacies. […] The expected efficacies of active compound mixtures were determined using Colby's formula [R. S. Colby, “Calculating synergistic and antagonistic responses of herbicide combinations”, Weeds 15, 20-22 (1967)] and compared with the observed efficacies. […] The stock solutions were mixed according to the ratio, pipetted onto a micro titer plate (MTP) and diluted with water to the stated concentrations. A spore suspension of Botrci cinerea in an aqueous biomalt or yeast-bactopeptone-sodiumacetate solution was then added. The plates were placed in a water vapor-saturated chamber at a temperature of 18° C.

[1] = system: Colletotrichum orbiculare; assay: Activity against Colletotrichum orbiculare in the microtiterplate test; conditions: single active, 7 days after inoculation
Cercospora sojina = assay: Activity against Cercospora sojina in the microtiter test; conditions: single active, 7 days after inoculation
Source text: Synergism can be described as an interaction where the combined effect of two or more compounds is greater than the sum of the individual effects of each of the compounds. The presence of a synergistic effect in terms of percent control or efficacy, between two mixing partners (X and Y) can be calculated using the Colby equation (Colby, S. R., 1967, Calculating Synergistic and Antagonistic Responses in Herbicide Combinations, Weeds, 15, 20-22): The measured parameters were compared to the growth of the active compound-free control variant (100%) and the fungus-free blank value to determine the relative growth in % of the pathogens in the respective active compounds. These percentages were converted into efficacies. […] The expected efficacies of active compound mixtures were determined using Colby's formula [R. S. Colby, “Calculating synergistic and antagonistic responses of herbicide combinations”, Weeds 15, 20-22 (1967)] and compared with the observed efficacies. […] The stock solutions were mixed according to the ratio, pipetted onto a micro titer plate (MTP) and diluted with water to the stated concentrations. A spore suspension of Cercospora sojina in an aqueous biomalt or yeast-bactopeptone-sodiumacetate solution was then added. The plates were placed in a water vapor-saturated chamber at a temperature of 18° C. Using an absorption photometer, the MTPs were measured at 405 nm 7 days after the inoculation.

Phytophthora infestans = conditions: single active, 7 days after inoculation
Septoria tritici = assay: Activity against leaf blotch on wheat caused by Septoria tritici (microtiter plate); conditions: single active, 7 days after inoculation
Source text: Synergism can be described as an interaction where the combined effect of two or more compounds is greater than the sum of the individual effects of each of the compounds. The presence of a synergistic effect in terms of percent control or efficacy, between two mixing partners (X and Y) can be calculated using the Colby equation (Colby, S. R., 1967, Calculating Synergistic and Antagonistic Responses in Herbicide Combinations, Weeds, 15, 20-22): The measured parameters were compared to the growth of the active compound-free control variant (100%) and the fungus-free blank value to determine the relative growth in % of the pathogens in the respective active compounds. These percentages were converted into efficacies. […] The expected efficacies of active compound mixtures were determined using Colby's formula [R. S. Colby, “Calculating synergistic and antagonistic responses of herbicide combinations”, Weeds 15, 20-22 (1967)] and compared with the observed efficacies. […] The stock solutions were mixed according to the ratio, pipetted onto a micro titer plate (MTP) and diluted with water to the stated concentrations. A spore suspension of Septoria tritici in an aqueous biomalt or yeast-bactopeptone-glycerine or DOB solution was then added. The plates were placed in a water vapor-saturated chamber at a temperature of 18° C. Using an absorption photometer, the MTPs were measured at 405 nm 7 days after the inoculation.

Rhynchosporium secalis = assay: Activity against Rhynchosporium secalis in the microtiterplate test; conditions: single active, 63 ppm, 7 days after inoculation
Source text: Synergism can be described as an interaction where the combined effect of two or more compounds is greater than the sum of the individual effects of each of the compounds. The presence of a synergistic effect in terms of percent control or efficacy, between two mixing partners (X and Y) can be calculated using the Colby equation (Colby, S. R., 1967, Calculating Synergistic and Antagonistic Responses in Herbicide Combinations, Weeds, 15, 20-22): The measured parameters were compared to the growth of the active compound-free control variant (100%) and the fungus-free blank value to determine the relative growth in % of the pathogens in the respective active compounds. These percentages were converted into efficacies. […] The expected efficacies of active compound mixtures were determined using Colby's formula [R. S. Colby, “Calculating synergistic and antagonistic responses of herbicide combinations”, Weeds 15, 20-22 (1967)] and compared with the observed efficacies. […] The stock solutions were mixed according to the ratio, pipetted onto a micro titer plate (MTP) and diluted with water to the stated concentrations. A spore suspension of Rhynchosporium secalis in an aqueous biomalt or yeast-bactopeptone-glycerine or DOB solution was then added. […] Using an absorption photometer, the MTPs were measured at 405 nm 7 days after the inoculation.

Sclerotinia sclerotiorum = assay: Activity against Sclerotinia sclerotiorum in the microtiterplate test; conditions: single active, 7 days after inoculation

CON(C(=O)c1cn(C)nc1C(F)F)C(C)Cc1c(Cl)cc(Cl)cc1Cl (centres unmarked) [Pydiflumetofen, pydiflumetofen, reference compound]
Observed efficacy (Botrytis cinerea; 0.063 ppm): 42% | Observed efficacy ([1]; 16 ppm): 59%

COc1ccnc(C(=O)N[C@@H](C)C(=O)O[C@@H](C)C(c2ccc(F)cc2)c2ccc(F)cc2)c1OC(C)=O [Florylpicoxamid, florylpicoxamid, reference compound]
Observed efficacy (Cercospora sojina; 0.25 ppm): 6% | Observed efficacy (Cercospora sojina; 16 ppm): 61%

Cc1cc(C(F)(F)F)nn1CC(=O)N1CCC(c2nc(C3=NOC(c4c(F)cccc4F)C3)cs2)CC1 (centres unmarked) [Oxathiapiproline, oxathiapiprolin, reference compound]
Observed efficacy (Phytophthora infestans; 0.016 ppm): 0% | Observed efficacy (Phytophthora infestans; 0.063 ppm): 11%

CC(C)c1ccc(Cl)cc1CN(C(=O)c1c(C(F)F)nn(C)c1F)C1CC1 [Isoflucypram, isoflucypram, reference compound]
Observed efficacy (Botrytis cinerea; 0.25 ppm): 57% | Observed efficacy (Septoria tritici; 0.063 ppm): 40%

N#Cc1ccc(Oc2ccc(C(F)(F)C(O)(Cn3ncnc3S)c3ccc(F)cc3F)nc2)cc1 (centres unmarked) [B.5)d), 4-[[6-[2-(2,4-difluorophenyl)-1,1-difluoro-2-hydroxy-3-(5-sulfanyl-1,2,4-triazol-1-yl)propyl]-3-pyridyl]oxy]benzonitrile]
Observed efficacy (Rhynchosporium secalis): 70%

pyrapropoyne [reference compound]
Observed efficacy (Botrytis cinerea; 1 ppm): 26% | Observed efficacy (Sclerotinia sclerotiorum; 1 ppm): 27%

CCN(C(=O)c1cnn(C(C)C(C)C)c1C)c1ccnnc1 (racemic) [Dimpropyridaz, 1-[(1 RS)-1,2-dimethylpropyl]-N-ethyl-5-methyl-N-pyridazin-4-yl-1H-pyrazole-4-carboxamide]
Observed efficacy (Phytophthora infestans; 0.016 ppm): 0% | Observed efficacy (Phytophthora infestans; 0.063 ppm): 4% | Observed efficacy (Botrytis cinerea; 0.063 ppm): 0% | Observed efficacy (Botrytis cinerea; 0.25 ppm): 1% | Observed efficacy (Botrytis cinerea; 1 ppm): 0% | Observed efficacy (Septoria tritici; 0.063 ppm): 5% | Observed efficacy (Septoria tritici; 0.25 ppm): 7% | Observed efficacy (Cercospora sojina; 0.25 ppm): 0% | Observed efficacy (Cercospora sojina; 63 ppm): 23% | Observed efficacy ([1]; 63 ppm): 14% | Observed efficacy (Rhynchosporium secalis): 12% | Observed efficacy (Sclerotinia sclerotiorum; 0.25 ppm): 0%

From US20250255301A1, “PESTICIDAL MIXTURES COMPRISING A PYRAZOLE COMPOUND” (BASF SE, priority 2019, published 2025)
